Measurements taken from patent publication US20020119939A1, “Stable aqueous deoxyfructosazine solution” (priority 2000, published 2002).

Assay: study of the stability of aqueous deoxyfructosazine solutions (HPLC)
Format: physicochemical
Settings: 1 mg/ml solution
Protocol: The study of the stability of aqueous deoxyfructosazine solutions was carried out according to the following protocol:
A deoxyfructosazine solution (1 mg/ml) is prepared using an aqueous 0.05M phosphoric acid solution. Samples of the solution are adjusted to pH 2, 3, 4, 5, 6, 7, 8 and 9 by addition of sodium hydroxide. The solutions thus obtained are stored in glass bottles protected from the light, at 4° C. (control solution), 25° C., 45° C. and 60° C. After 2, 7 and 15 days, the samples are diluted 5-fold with a 20 mM, pH 7 phosphate buffer and the stability is examined by high pressure liquid chromatography (HPLC).

In the case of `OC[C@@H](O)[C@@H](O)[C@H](O)c1cnc(C[C@H](O)[C@H](O)CO)cn1` [deoxyfructosazine, 2-((1R, 2S, 3R)1,2,3,4-tetrahydroxybutyl)-5-((2′S, 3′R)2′, 3′, 4′-trihydroxy-butylpyrazine)], the “% of decomposition product calculated relative to the total area of the peaks, Product A” value (pH 2, stored 15 days at 45° C.) is reported as 1.52%, the “% of decomposition product calculated relative to the total area of the peaks, Product A” value (pH 2, stored 15 days at 60° C.) is reported as 6.94% and the “% of decomposition product calculated relative to the total area of the peaks, Product B” value (pH 2, stored 15 days at 60° C.) is reported as 0.02%. The “% of decomposition product calculated relative to the total area of the peaks, Product A” value (pH 3, stored 15 days at 45° C.) was 0.16%, the “% of decomposition product calculated relative to the total area of the peaks, Product A” value (pH 3, stored 15 days at 60° C.) was 0.87% and the “% of decomposition product calculated relative to the total area of the peaks, Product B” value (pH 3, stored 15 days at 60° C.) was 0.03%. For the same molecule, the “% of decomposition product calculated relative to the total area of the peaks, Product A” value (pH 4, stored 15 days at 60° C.) was 0.07%, the “% of decomposition product calculated relative to the total area of the peaks, Product B” value (pH 4, stored 15 days at 60° C.) was 0.05% and the “% of decomposition product calculated relative to the total area of the peaks, Product B” value (pH 5, stored 15 days at 45° C.) was 0.03%. The “% of decomposition product calculated relative to the total area of the peaks, Product B” value (pH 5, stored 15 days at 60° C.) was 0.24%, the “% of decomposition product calculated relative to the total area of the peaks, Product B” value (pH 6, stored 15 days at 45° C.) was 0.21% and the “% of decomposition product calculated relative to the total area of the peaks, Product B” value (pH 6, stored 15 days at 60° C.) was 0.71%. For the same molecule, the “% of decomposition product calculated relative to the total area of the peaks, Product B” value (pH 7, stored 15 days at 45° C.) was 0.69%, the “% of decomposition product calculated relative to the total area of the peaks, Product B” value (pH 7, stored 15 days at 60° C.) was 13.9% and the “% of decomposition product calculated relative to the total area of the peaks, Product B” value (pH 8, stored 15 days at 45° C.) was 0.95%. The “% of decomposition product calculated relative to the total area of the peaks, Product B” value (pH 8, stored 15 days at 60° C.) was 37.9%, the “% of decomposition product calculated relative to the total area of the peaks, Product B” value (pH 9, stored 15 days at 45° C.) was 1.92% and the “% of decomposition product calculated relative to the total area of the peaks, Product B” value (pH 9, stored 15 days at 60° C.) was 37.7%.
